Results reported in patent US11530458B2, “Methods of using multi-ligand metal complexes to perform oxidative catalytic pretreatment of lignocellulosic biomass” (Board of Trustees of Michigan State University, priority 2014, dated 2022).

Key:
[1] = Catalyst screening with multi-ligand metal complexes: enzymatic digestibility of hybrid poplar after AOP pretreatment; parameters: species or system Populus nigra var. charkoviensis×caudina cv. NE-19; details: FIG. 1
Description: Metal complexes (hereinafter “metal catalysts”) containing multiple or single metal coordinating ligands were tested. The metal catalysts tested included copper catalysts having a second metal coordinating ligand substituted for at least a portion of the 2,2′-bipyridine. These catalysts were evaluated for their performance in further enhancing the efficacy of AOP pretreatment of hybrid poplar. Ligands involved in the screening included histidine, glycine, di(2-picolyl)amine (dipica, 97%), 1,4,7-triazacyclononane (TACN, 95%), 2,2′;6′,2″-terpyridine (Terpy, 98%), 1,10-phenanthroline (phen, ≥99%), and tris(2-pyridylmethyl)amine (TPA, 98%, obtained from Sigma-Aldrich and Acros Organics/0). An iron 2,2′-bipyridine complex was prepared by mixing ferrous sulfate heptahydrate with 2,2′-bipyridine in an aqueous solution, and this iron complex was also tested.
The hybrid poplar (Populus nigra var. charkoviensis×caudina cv. NE-19) used in this testing was grown at the University of Wisconsin Arlington Agricultural Research Station. The hybrid poplar was harvested in 2011 and debarked using methods known in the art at the University of Wisconsin, Madison to produce heartwood and sap wood (different parts of the wood stem which can be differentiated via chemical testing). […]

[2] = Metal-catalyzed AOP pretreatment of chelated woody biomass, then enzymatic hydrolysis; details: [metal]:[bpy]=2 mM:4 mM; versus Mn-AOP and Fe-AOP; FIG. 30
Description: Three different pretreatment strategies were tested on each of the biomass samples: alkali only, alkaline hydrogen peroxide (AOP), and copper-catalyzed AOP (Cu-AOP). In all cases, 0.51 g of biomass (approximately 0.5 g dry basis; about 3 to about 5% moisture content) was pretreated in a total of 5.0 mL aqueous solution (10% solids loading). For alkali-only pretreatment, the solution contained 50 mg NaOH (100 mg NaOH/g biomass), while AOP pretreatment also contained 150 μL of 30% H2O2 (100 mg H2O2/g biomass). […]
Following pretreatment, 0.5 mL of 1 M citric acid buffer (pH 4.8) was added to the pretreated slurry, and the slurry was slowly titrated with 72% (w/w) H2SO4 to adjust the pH to 5.0 prior to enzymatic hydrolysis. […] The protein concentrations of the stock enzyme cocktails were quantified as y described in X. Gao, R. Kumar, S. Singh, B. A. Simmons, V. Balan, B. E. Dale and C. […]
Following enzymatic hydrolysis, the solid and liquid phases were separated by centrifugation, and the amount of glucose and xylose released into the aqueous phase was quantified by HPLC (Agilent 1260 Series equipped with an Aminex® HPX-87H column operating at 65° C., a mobile phase of 0.05 M H2SO4, a flow rate of 0.6 mL/min, and detection using an Agilent 1260 infinity refractive index detector). […]

[3] = Catalytic AOP pretreatment of alkali-extracted switchgrass, then enzymatic hydrolysis (glucose yield); parameters: species or system Panicum virgatum; details: for Glucose yield of enzymatic hydrolysis (% of theoretical maximum): 24 hr AOP pretreatment of AESG, catalyst concentration per table
Description: Screening of various metal ligand complexes (hereinafter “catalysts”) was performed via catalytic alkaline oxidative pretreatment (AOP) pretreatment of alkali-extracted switchgrass (AESG). To prepare AESG, 80 grams of untreated switchgrass (Panicum virgatum, cv. Cave-In-Rock, hammer milled to pass a 5-mm screen, and stored at a moisture content of approximately 5%) was soaked in an aqueous solution of 5 g/L NaOH at 80° C. for 2 hrs. The weight-to-volume (w/v) solids loading of switchgrass during alkaline extraction was 10% (e.g., 10 g of biomass in 100 mL NaOH solution). […] The washed solids was recovered as AESG and air-dried for over 7 days.
[Al(III)(3,5-^tBu2-salophen)Cl] [3,5-^tBu2-salophen=N,N′-bis(3,5-di-tert-butylsalicylidene)-1,2-phenylenediamine], [Zn(II)(BPPA)Cl]Cl [BPPA=N,N-bis(6-pivaloylamido-2-pyridylmethyl)-N-(2-pyridylmethyl)amine], and [NEt4][Fe(III)(bpb)Cl2]
To study the effect of catalytic AOP pretreatment on AESG, pretreatment was performed in a 100 g/L aqueous suspension of AESG in the presence of each catalyst. […] After 24 hrs of incubation at 30° C. without mixing, the pretreated switchgrass slurry was washed using deionized water to remove the alkaline phosphate buffer.
The enzymatic digestibility of AOP-pretreated switchgrass was estimated by the yield of glucose during the enzymatic hydrolysis of AOP pretreated AESG. The percentage yield was calculated on the basis of the glucan content in AESG prior to catalytic AOP pretreatment.
For enzymatic hydrolysis, 500 μL of 1 M Na-citrate buffer (pH 5) and 40 μL of 10 mM tetracycline (Sigma-Aldrich) were added to AOP-AESG that was not dried after catalytic AOP pretreatment. Accellerase 1500 (42 FPU/mL; Danisco-Genencor, Palo Alto, Calif.) was added at 50 mg protein per gram of glucan in AESG. The total volume of the mixture (solid and liquid) was adjusted with deionized water to reach a 5% (w/v) solids concentration, and the samples were incubated at 50° C. during hydrolysis.

## copper(II) 2,2′-bipyridine complex [Cu(bpy), L/M = 3:1]
[1]
  Performance in enhancing AOP pretreatment of hybrid poplar (enzymatic digestibility): superior performance among all candidates
[2]
  Enzymatic digestibility after metal-catalyzed AOP: significantly higher enzymatic digestibility than the addition of either Mn(bpy) or Fe(bpy) complexes
[3]; pH 10, 24 hrs hydrolysis
  Glucose yield of enzymatic hydrolysis (% of theoretical maximum): 38.67 ± 0.3 % of theoretical maximum
[3]; pH 10, 72 hrs hydrolysis
  Glucose yield of enzymatic hydrolysis (% of theoretical maximum): 42.98 ± 0.88 % of theoretical maximum
[3]; pH 11, 24 hrs hydrolysis
  Glucose yield of enzymatic hydrolysis (% of theoretical maximum): 41.65 ± 0.14 % of theoretical maximum
[3]; pH 11, 72 hrs hydrolysis
  Glucose yield of enzymatic hydrolysis (% of theoretical maximum): 44.97 ± 0.42 % of theoretical maximum
[3]; pH 11.5, versus no catalyst
  Improvement in enzymatic digestibility of AOP pretreated AESG: very moderate improvement
[3]; pH 13, 24 hrs hydrolysis
  Glucose yield of enzymatic hydrolysis (% of theoretical maximum): 41.56 ± 0.06 % of theoretical maximum
